Calls of active or inactive are those of the source.
How the values were obtained:
Format in all cases: functional, organism-based
Mus musculus [1] = assay: Anti-inflammatory activity against DSS-induced ulcerative colitis C57BL/6J mouse model assessed as restoration of colon length at 10 mg/kg, po administered for 7 days and measured on day 7
Mus musculus [2] = assay: Anti-inflammatory activity against DSS-induced ulcerative colitis C57BL/6J mouse model assessed as reduction in IL-6 production at 10 mg/kg, po administered for 7 days and measured on day 7 by ELISA
Mus musculus [3] = assay: Anti-inflammatory activity against DSS-induced ulcerative colitis C57BL/6J mouse model assessed as reduction in TNFalpha production at 10 mg/kg, po administered for 7 days and measured on day 7 by ELISA
Mus musculus [4] = assay: Anti-inflammatory activity against DSS-induced ulcerative colitis C57BL/6J mouse model assessed as reduction in colon ulceration at 10 mg/kg, po administered for 7 days and measured on day 7
Mus musculus [5] = assay: Anti-inflammatory activity against DSS-induced ulcerative colitis C57BL/6J mouse model assessed as restoration of damaged colon mucosal layer at 10 mg/kg, po administered for 7 days and measured on day 7 by ELISA
Mus musculus [6] = assay: Anti-inflammatory activity against DSS-induced ulcerative colitis C57BL/6J mouse model assessed as reduction in colon swelling at 10 mg/kg, po administered for 7 days and measured on day 7
Mus musculus [7] = assay: Anti-inflammatory activity against DSS-induced ulcerative colitis C57BL/6J mouse model assessed as reduction in IL-23 production at 10 mg/kg, po administered for 7 days and measured on day 7 by ELISA
Mus musculus [8] = assay: Anti-inflammatory activity against DSS-induced ulcerative colitis C57BL/6J mouse model assessed as reduction in colon inflammation at 10 mg/kg, po administered for 7 days and measured on day 7
Mus musculus [9] = assay: Anti-inflammatory activity against DSS-induced ulcerative colitis C57BL/6J mouse model assessed as reduction in body weight loss at 10 mg/kg, po administered for 7 days and measured daily
Mus musculus [10] = assay: Anti-inflammatory activity against DSS-induced ulcerative colitis C57BL/6J mouse model assessed as reduction in IL-1beta production at 10 mg/kg, po administered for 7 days and measured on day 7 by ELISA
Mus musculus [11] = assay: Anti-inflammatory activity against DSS-induced ulcerative colitis C57BL/6J mouse model assessed as reduction in diarrhea at 10 mg/kg, po administered for 7 days and measured daily

Measured: Activity

O=C(O)C[C@H]1CCc2c1[nH]c1ccc(OCc3ccc(C4CCCC4)c(C(F)(F)F)c3)cc21
active: all assays above
